Data: patent US20070274947A1, “Antisense Oligonucleotides Directed to Ribonucleotide Reductase R1 and Uses Thereof in the Treatment of Cancer” (priority 2003, published 2007)
“Also recorded” adds a separate entry of the source.

Legend:
[1] = rat
Procedure: Ten rats/sex/group were administered SEQ ID NO:1 at doses of 0 (control), 2, 10, or 50 mg/kg/day. Animals in the control group received the vehicle article, PBS. […] An additional 5 rats/group were included in the control and high dose group as recovery animals, and were allowed a 14-day observation period following the treatment period. Parameters assessed during the study include mortality, clinical signs, body weights, food consumption, opthalmoscopic examination, clinical pathology assessment (hematology, coagulation, clinical chemistry, and urinalysis). Terminal procedures included a complete necropsy of each animal, and histopathologic evaluation of selected tissues for animals in the control and high dose groups. For toxicokinetic evaluations, an additional 8 rats/sex were included in the high dose groups. Serial and terminal blood samples were withdrawn from satellite animals at selected time points during infusion and after the end of infusion.

[2] = Tissue distribution after continuous infusion in rats; type: in vivo; conditions: rat
[3] = Acute intravenous toxicity study in rats (24-hour infusion); type: in vivo, Sprague-Dawley rats; conditions: rat
Text: The purpose of this study was to assess the adverse effects of SEQ ID NO:1 when administered as a single intravenous dose to Sprague-Dawley rats. […] Parameters assessed included mortality, clinical observations, body weight and food consumption assessment, clinical pathology and urinalysis measurements, and gross examination at necropsy.

[4] = Acute intravenous toxicity study in the monkey (24-hour infusion, escalating doses); type: in vivo, Cynomolgus monkeys
Procedure: The objective of this single, dose escalating study was to establish a maximum tolerated dose (MTD) for SEQ ID NO:1 and to assess the effect of administered SEQ ID NO:1 on the cardiac function of conscious Cynomolgus monkeys. […] There was a 3-day washout between doses. One female animal, administered vehicle only (PBS) in the same manner, was used as a control. Electrocardiogram (ECG) measurements were conducted on each animal (including control) prior to, during and after the end of each infusion interval. Clinical signs, mortality, body weight and food consumption measurements, hematology, coagulation and clinical chemistry parameter evaluations, were recorded and evaluated. In addition, blood samples were removed prior to and at the end of each infusion interval to measure complement (CH50 and Bb). Blood samples were also drawn at the end of each infusion for analysis of parent, SEQ ID NO:1.

Hep G2 (liver) = experiment: Colony forming ability, Hep G2; type: cell-based, human; conditions: 0.2 μM antisense oligonucleotide/lipofectin, 4 hours
Procedure: The effect of SEQ ID NO:1 on the colony forming ability were evaluated in the following human tumor cell lines:
Tumor cells were washed in 5 ml of phosphate buffered saline, pH 7.2, prior to 0.2 μM antisense oligonucleotide/lipofectin treatment for 4 hours. The medium was removed and the cells were gently washed with 5 ml of growth medium. The cells were then cultured in growth medium for seven to ten days. Surviving colonies were visualized by methylene blue staining and colonies of 50 or more cells were scored (Choy et al., 1988 and Huang and Wright, 1994). Results are summarized from 4 to 8 trials for each tumor cell line.

[5] = Phase I study, 14-day continuous intravenous infusion in patients with solid tumors or lymphoma
Procedure: To determine the maximal tolerated dose (MTD) and recommended Phase II dose of SEQ ID NO:1 in patients with solid tumors or lymphoma when administered as a 14-day continuous intravenous infusion.
Safety: Adverse events and laboratory evaluation. Dosage Selection and Dosing Interval:
The starting dose in the Phase I dose-escalation study is 6.0 mg/m^2/day (approximately 0.16 mg/kg/day) infused over 14 days.
DLT Definition: • Grade 4 neutropenia associated with fever or lasting 3 days or longer. • Platelet count <25,000 μl. • Any ≧ grade 3 coagulation abnormality (defined by PT and aPTT values). • Clinical hemorrhage ≧ grade 1. • Nausea/vomiting ≧ grade 3 despite maximal antiemetic therapy; diarrhea ≧ grade 3 despite maximal anti-diarrheal therapy. • Any other non-hematological toxicity ≧grade 3 with the exception of alopecia Interim Evaluation Status:
Preliminary evaluability assessment was performed. In the Phase I open label single arm study, SEQ ID NO:1 was administered in daily doses escalating from 6.0 mg/m^2 to 210.9 mg/m^2 in patients with solid tumors or lymphoma. SEQ ID NO:1 was administered as monotherapy by ambulatory intravenous infusion for 14 days in each 21 day cycle. […] Expected toxicities for agents in the same class as SEQ ID NO:1, phosphorothioate oligonucleotides, include fatigue, prolonged coagulation (PT/aPITI) times and elevated transaminase ALT/AST) levels.

[6] = tested on: SIHA human cervical cancer cells; experiment: SIHA cervical tumor growth in SCID mice; type: in vivo
Procedure: SIHA human cervical cancer cells (1×10^7 cells in 100 μl of PBS) were subcutaneously injected into the right flank of 6-7 week old female SCID mice. After the size of tumor reached an approximate volume of 100 mm^3, 7 days post tumor cell injection, SEQ ID NO:1 was administered by bolus infusion into the tail vein every other day at 10 mg/kg. Control animals received saline alone for the same period. Treatments lasted for 16 days thereafter. Antitumor activities were estimated by the inhibition of tumor volume (FIG. 11A), which was measured with a caliper on five different occasions over 16-day period. Each point represents mean tumor volume calculated from 10 animals per experimental group.

5′-CTCTAGCGTCTTAAAGCCGA-3′ (CTCTAGCGTCTTAAAGCCGA; chemistry not given here) [SEQ ID NO:1]
sex difference in plasma concentrations during infusion [1]: no apparent differences in the levels between males and females | mean Cmax ([1]; in vivo): 40.4 µg/mL | median time at which Cmax occurred ([1]; in vivo): 96 h | time to steady state of continuous infusion ([1]; 50 (40) mg/kg/day continuous infusion): approximately 24 h | elimination t1/2 ([1]; after 14-day continuous infusion, high dose): 8.6 h | steady state level (Css) in plasma ([1]; continuous i.v. infusion 50 mg/kg/day (reduced to 40 mg/kg/day), 14 days): 34.8 µg/mL | levels in the brain [2]: very low or below the limits of detection; also recorded: undetectable | tissue concentrations, rank order [2]: kidney>liver>spleen>lymph node (monkey)>lung (monkey)>heart; also recorded: highest in the kidney followed by the liver, spleen and heart | toxicological effects ([3]; 24-hour continuous i.v. infusion, 40 mg/kg/day): toxicological effects were not observed | test article related effects ([3]; 24-hour continuous i.v. infusion, 60, 80 and 90 mg/kg): some test article related effects were found | complement values ([4]; 80 mg/kg, one animal (female)): outside the normal range (higher Bb and lower CH50) | ECG recordings and blood pressure ([4]; 10-80 mg/kg): no treatment-related effects | deaths, clinical signs, body weight, food consumption ([4]; 24-hour infusions of 10, 20, 40 and 80 mg/kg): no deaths, clinical signs, body weight changes, or effects on food consumption | plasma concentrations at the end of infusion ([4]; escalating doses 10-80 mg/kg): increased with escalating dose levels | activated partial thromboplastin times ([4]; following the last dose (Day 14), all values within normal ranges): apparent increasing trend | complement Bb and CH50 values ([4]; up to 40 mg/kg): within the reference range | inhibition in colony forming ability (Hep G2 (liver)): greater than 60% | drug related serious adverse events ([5]; human, in vivo): no drug related serious adverse events | tolerability ([5]; human, in vivo): well tolerated | additional sporadic toxicities considered possibly related to study therapy ([5]; interim evaluation): Grade 3 hypokalemia, Grade 3 increased blood alkaline phosphatase and Grade 3 diarrhea | patients with Grade 3 fatigue ([5]; interim evaluation): Two patients | patients with Grade 3 increased ALT ([5]; interim evaluation): three patients | patients with Grade 3 increased AST ([5]; interim evaluation): one patient | patients with prolonged aPTT ([5]; interim evaluation): one patient | maximum tolerated dose (MTD) ([5]; patients, no MTD seen up to and including this dose, interim): ≥ 210.9 mg/m^2/day | inhibition of tumor volume ([6]; 10 mg/kg i.v. every other day, 16 days, vs saline): strong inhibitory effects | weight of excised tumors ([6]; end of treatments): strong antitumor effect
